Test results published in PubChem BioAssay (NCI).
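Dose response: 5 concentrations. Exposure: 48 h. Format: 96-well plates. Endpoint: linear interpolation; highest concentration if not reached. Definition used: TGI = concentration required for complete inhibition of growth.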

Key:
Assay in all cases: growth of human tumour cells (NCI), 48 h
MOLT-4 leukemia = tested on: MOLT-4 leukemia
EKVX NSCLC = tested on: EKVX NSCLC
T-47D breast = tested on: T-47D breast
HT29 colon = tested on: HT29 colon
K-562 leukemia = tested on: K-562 leukemia
SF-295 CNS = tested on: SF-295 CNS
MCF7 breast = tested on: MCF7 breast
SR leukemia = tested on: SR leukemia
UO-31 renal = tested on: UO-31 renal
SK-MEL-2 melanoma = tested on: SK-MEL-2 melanoma
OVCAR-3 ovarian = tested on: OVCAR-3 ovarian
SW-620 colon = tested on: SW-620 colon
A549 NSCLC = tested on: A549 NSCLC
NCI-H23 lung = tested on: NCI-H23 lung
PC-3 prostate = tested on: PC-3 prostate
CAKI-1 renal = tested on: CAKI-1 renal
SF-539 CNS = tested on: SF-539 CNS
OVCAR-4 ovarian = tested on: OVCAR-4 ovarian
NCI-H226 lung = tested on: NCI-H226 lung
SN12C renal = tested on: SN12C renal
MDA-N = tested on: MDA-N
MDA-MB-231 breast = tested on: MDA-MB-231 breast
ACHN renal = tested on: ACHN renal
DU-145 prostate = tested on: DU-145 prostate
SF-268 CNS = tested on: SF-268 CNS
IGROV1 ovarian = tested on: IGROV1 ovarian
COLO 205 colon = tested on: COLO 205 colon
HCC-2998 colon = tested on: HCC-2998 colon
SK-MEL-5 melanoma = tested on: SK-MEL-5 melanoma
HCT-116 colon = tested on: HCT-116 colon
OVCAR-5 ovarian = tested on: OVCAR-5 ovarian
BT-549 breast = tested on: BT-549 breast
SK-MEL-28 melanoma = tested on: SK-MEL-28 melanoma
HS 578T breast = tested on: HS 578T breast
SNB-19 CNS = tested on: SNB-19 CNS
HCT-15 colon = tested on: HCT-15 colon
786-0 renal = tested on: 786-0 renal
HL-60(TB) leukemia = tested on: HL-60(TB) leukemia
M14 melanoma = tested on: M14 melanoma
OVCAR-8 ovarian = tested on: OVCAR-8 ovarian
MDA-MB-435 = tested on: MDA-MB-435
CCRF-CEM leukemia = tested on: CCRF-CEM leukemia
MALME-3M melanoma = tested on: MALME-3M melanoma
NCI-H522 lung = tested on: NCI-H522 lung
KM12 colon = tested on: KM12 colon
NCI-H460 lung = tested on: NCI-H460 lung
U251 CNS = tested on: U251 CNS
HOP-62 NSCLC = tested on: HOP-62 NSCLC
SNB-75 CNS = tested on: SNB-75 CNS
TK-10 renal = tested on: TK-10 renal
UACC-62 melanoma = tested on: UACC-62 melanoma
A498 renal = tested on: A498 renal
LOX IMVI melanoma = tested on: LOX IMVI melanoma
SK-OV-3 ovarian = tested on: SK-OV-3 ovarian
RPMI-8226 leukemia = tested on: RPMI-8226 leukemia
NCI/ADR-RES ovarian = tested on: NCI/ADR-RES ovarian

Measured: TGI

C=C(C)c1cc(C(C)(C)C)cc(C(=C)C)c1S(C)(=O)=O
> 100 µM: MOLT-4 leukemia | EKVX NSCLC | T-47D breast | HT29 colon | K-562 leukemia | SF-295 CNS | MCF7 breast | SR leukemia | UO-31 renal | SK-MEL-2 melanoma | OVCAR-3 ovarian | SW-620 colon | A549 NSCLC | NCI-H23 lung | PC-3 prostate | CAKI-1 renal | SF-539 CNS | OVCAR-4 ovarian | NCI-H226 lung | SN12C renal | MDA-N | MDA-MB-231 breast | ACHN renal | DU-145 prostate | SF-268 CNS | IGROV1 ovarian | COLO 205 colon | HCC-2998 colon | SK-MEL-5 melanoma | HCT-116 colon | OVCAR-5 ovarian | BT-549 breast | SK-MEL-28 melanoma | HS 578T breast | SNB-19 CNS | HCT-15 colon | 786-0 renal | HL-60(TB) leukemia | M14 melanoma | OVCAR-8 ovarian | MDA-MB-435 | CCRF-CEM leukemia | MALME-3M melanoma | NCI-H522 lung | KM12 colon | NCI-H460 lung | U251 CNS | HOP-62 NSCLC | SNB-75 CNS | TK-10 renal | UACC-62 melanoma | A498 renal | LOX IMVI melanoma | SK-OV-3 ovarian | RPMI-8226 leukemia | NCI/ADR-RES ovarian
